The values below are quoted from earlier work in patent US20210100738A1, “OXYGEN DELIVERY BEVERAGE” (RESPIROGEN, INC., priority 2018, published 2021).

The conditions of the series: oral co-administration of lipids, in mammals.

On to `CCCCCc1cc(O)c2c(c1)OC(C)(C)[C@@H]1CCC(C)=C[C@@H]21` [THC, Δ^9-tetrahydrocannabinol], for which the increase in bioavailability entry is on record as “more than 2.5 fold”.

`C=C(C)[C@@H]1CCC(C)=C[C@H]1c1c(O)cc(CCCCC)cc1O` [CBD, cannabidiol]: the increase in bioavailability is ~3 fold.
